# Measured values taken from patent US10219794B2, “Method of treating pleural abnormality” (National Taiwan University, priority 2014, dated 2019).
# Test system: TC-1 cell line (mouse lung cancer cell line)
# Assay type: cell-based
# Settings: TC-1 cells, released from PCL membrane
# Description: In one embodiment, the drug release rates of different kinds of the biodegradable polymeric membrane were tested. There were 6 experimental groups and 1 control group. Control group: TCPS (Tissue Culture Polystyrene); experimental group 1: the non-porous PCL membrane without any drugs; experimental group 2: the non-porous PCL membrane with 1 μg/ml of Cisplatin (0.3 μg/well); experimental group 3: the non-porous PCL membrane with 10 μg/ml of Cisplatin (3 μg/well); experimental group 4: the porous PCL membrane without any drugs; experimental group 5: the porous PCL membrane with 1 μg/ml of Cisplatin (0.3 μg/well); and experimental group 6: the porous PCL membrane with 10 μg/ml of Cisplatin (3 μg/well). The pores of the above porous PCL membrane were created by 0.01 g/mL of NaCl.
# In this embodiment, different kinds of membranes with drugs were cultured in TC-1 cell line (mouse lung cancer cell line) for three days, and the cell growth and cytotoxicity were measured by using AlamarBlue™. The absorbance was at 570 nm and 600 nm as the background.
smiles,measurement,value
N.N.[Cl][Pt][Cl] [cisplatin],killing cancer cells,capability of killing cancer cells
